According to patent US20080200536A1, “Pharmaceutical Formulation with High Stability and Dissolution and Manufacturing Process” (BORAM PHARM.CO., LTD, priority 2005, published 2008):

Assay: Dissolution rate of orlistat powder raw material
Assay type: physicochemical
Description: Orlistat is a drug having a melting point as low as 43° C., and is commercially available in a powder form. The dissolution rate of orlistat undergoing no denaturation under good storage conditions is about 60%. […] In addition, when raw materials of orlistat are exposed to high temperature during transport, the powder particles of orlistat rapidly aggregate. Thereafter, the aggregates remain even when being cooled, causing damage to the dissolution of orlistat.

- dissolution rate (orlistat raw material exposed to high temperature during transport, particles aggregated): ≤ 40%
- dissolution rate (orlistat undergoing no denaturation under good storage conditions): about 60%
Structure (SMILES): CCCCCCCCCCC[C@@H](C[C@@H]1OC(=O)[C@H]1CCCCCC)OC(=O)[C@H](CC(C)C)NC=O [orlistat]
